Paper doi:10.1101/2025.07.28.667221, “Pentilludin reduces rat amphetamine and remifentail self-administration with good pharmacologic and toxicologic profiles” (bioRxiv, 2025)
pIC50: −log10 of the molar value. “Also recorded” adds a separate entry of the source. Where two headings read alike, the source gives them in different places.

Legend:
mice [1] = test system: mice; set-up: method as in PMID 30348770; details: cited from earlier work
mice [2] = test system: mice; set-up: method as in PMID 30348770; details: cited from earlier work; remark: listed apart in the source
mice [3] = details: cited from earlier work
Ames test = experiment: Ames test; format: cell-based; details: in vitro
micronucleus test = experiment: micronucleus test; format: cell-based; details: in vitro
hERG channels = hERG channels (Homo sapiens, UniProt Q12809); experiment: hERG channel activity; details: in vitro
Sequence of hERG channels (Q12809 whole entry): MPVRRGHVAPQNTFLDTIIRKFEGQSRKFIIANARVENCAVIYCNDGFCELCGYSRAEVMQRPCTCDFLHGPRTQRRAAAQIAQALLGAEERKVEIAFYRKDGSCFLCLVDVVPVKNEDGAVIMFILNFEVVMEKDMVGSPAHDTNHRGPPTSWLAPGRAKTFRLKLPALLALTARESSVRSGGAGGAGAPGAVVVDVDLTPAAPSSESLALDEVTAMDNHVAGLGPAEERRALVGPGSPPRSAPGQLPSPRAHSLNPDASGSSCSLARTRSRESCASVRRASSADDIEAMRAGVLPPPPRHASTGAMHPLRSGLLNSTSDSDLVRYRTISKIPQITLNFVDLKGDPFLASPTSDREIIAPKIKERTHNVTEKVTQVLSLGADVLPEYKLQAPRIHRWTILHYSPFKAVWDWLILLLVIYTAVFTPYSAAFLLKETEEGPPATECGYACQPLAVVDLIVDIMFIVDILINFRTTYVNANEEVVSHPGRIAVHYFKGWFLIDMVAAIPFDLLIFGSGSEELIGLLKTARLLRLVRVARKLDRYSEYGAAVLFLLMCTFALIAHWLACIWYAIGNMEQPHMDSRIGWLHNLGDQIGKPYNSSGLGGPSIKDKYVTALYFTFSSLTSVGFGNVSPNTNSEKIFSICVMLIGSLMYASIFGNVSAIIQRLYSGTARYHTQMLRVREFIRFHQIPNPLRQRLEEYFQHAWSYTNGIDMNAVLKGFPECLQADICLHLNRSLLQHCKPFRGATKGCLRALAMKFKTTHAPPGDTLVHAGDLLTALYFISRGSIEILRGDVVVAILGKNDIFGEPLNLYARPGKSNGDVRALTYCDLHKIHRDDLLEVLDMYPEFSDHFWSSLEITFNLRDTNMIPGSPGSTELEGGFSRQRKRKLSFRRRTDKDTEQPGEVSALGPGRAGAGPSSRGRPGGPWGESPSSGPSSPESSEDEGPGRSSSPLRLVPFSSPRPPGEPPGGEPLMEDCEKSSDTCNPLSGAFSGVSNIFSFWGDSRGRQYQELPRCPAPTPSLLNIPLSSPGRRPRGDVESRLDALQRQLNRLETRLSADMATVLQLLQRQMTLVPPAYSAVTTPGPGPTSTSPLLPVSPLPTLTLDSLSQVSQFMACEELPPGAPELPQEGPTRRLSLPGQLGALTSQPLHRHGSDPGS

[4] = Solubility in dosing vehicles; format: physicochemical; details: read-out: soluble at concentrations up to
Description: Pentilludin powder was >97.5% pure following synthesis and when reanalyzed (Certificate of Analysis, GLP) 1 ½ and 2 ½ years after synthesis. Pentilludin was soluble in 6.82% Captisol in 60:40 PEG600/water (the vehicle used for initial toxicology experiments) and in PEG600 (the vehicle used for self-administration and Good Laboratory Practices testing) at concentrations up to 100 mg/ml with gentle heating.

[5] = Plasma pentilludin levels after acute 20 mg/kg iv or po administration; format: in vivo; details: rat
Description: Proteins in 50 μL plasma collected with K2EDTA as anti-coagulant were precipitated by adding 5 μL of acetonitrile with 0.5% v/v ascorbate, 200 μL of acetonitrile containing 20 ng/ml tolbutamide internal standard with 0.5% ascorbate was added, the mixture was vortexed for 1 min, centrifuged @ 4000 rpm for 15 mins and peaks in 8 μL of the supernatant were identified using an AB Sciex Triple Quad 5500 LC-MS/MS (electrospray, negative ions, Analyst 1.6.3 software) and a Waters Acquity Ultra Performance LC System with 50 × 2.1 mm Acuity UPLC Beh C18 1.7 μm column eluted for 2.5 min @ 22°C @ 0.5 ml/min with Mobile Phase A (5mM NH4OAc in water with 0.05% formic acid) and mobile phase B (acetonitrile with 0.1% formic acid) with changes in % A as follows: 60, 10, 5, and 60. Standards were quantitated at concentrations ranging from 1– 2000 ng/mL.

[6] = test system: rats trained to self-administer amphetamine iv; experiment: Amphetamine self-administration; format: in vivo; details: rat
Description: (§1) Young adult Sprague-Dawley rats (Charles River Laboratories, Raleigh, NC, USA) were singly housed on a reverse 12:12 day night cycle and tested during their active (dark) phase in studies approved by the Duke Institutional Animal Care and Use Committee. Rats had catheters surgically implanted in their jugular veins to provide access for self-administration by IV infusion. Briefly, rats were anesthetized with i.p. injections of ketamine (Fort Dodge Animal Health, Fort Dodge, IA, USA; […]) with the addition of Dexdomitor (Pfizer, New York, NY, USA; 0.15 mg/kg) which is a sedative and analgesic agent. Before surgery, ketoprofen (5 mg/kg, s.c.) was administered to reduce post-operative pain and inflammation. A plastic SoloPort was attached intraoperatively to a polyurethane catheter and inserted into a subcutaneous interscapular pocket and sutured to underlying fascia.
(§2) The day following surgery, the rats began self-administration sessions with amphetamine (0.1 mg/kg/infusion, iv) or remifentanil (0.3 μg/kg/infusion, iv) as reinforcers. […] Each infusion was followed by a 20-sec timeout in which the house light goes on and cue light goes out. Responses were recorded but not reinforced during this interval. […] There were five sessions of training for self-administration before the onset of pentilludin drug treatment sessions. All of the animals had the same number of training sessions to provide all with equal testing history. Each infusion session lasted for one hour. Animals were tested not more than once/day between 9 AM and 4 PM.
(§3) At the end of each study catheter patency was confirmed by assessing sedation following methohexital (brevital) administration through the catheter. […] Self-administration results, differences from baseline levels, were assessed for statistical for significance with analysis of variance. To control for baseline differences in self-administration, the self-administration with pentilludin or vehicle treatment was analyzed as a difference from each animal’s self-administration on the last two sessions of baseline training. […]

[7] = test system: rats trained to self-administer remifentanil iv; experiment: Remifentanil self-administration; format: in vivo; details: rat
Description: as §1, §2, §3

rats = experiment: Lever pressing for self-administration of food pellets; format: in vivo; details: rat, eight sessions of testing
dogs = experiment: Two week oral dosing in dogs, kidney pathology; format: in vivo, dog; details: 15 mg/kg/d po for two weeks
[8] = Metabolism in rat liver microsomes; format: in vitro ADME
[9] = Metabolism in human liver microsomes; format: in vitro ADME
Metabolism in rat plasma = format: in vitro ADME
[10] = Metabolism in human plasma; format: in vitro ADME
recombinant paraoxonase = experiment: Interaction with recombinant paraoxonase; format: in vitro ADME; details: initial work
[11] = biological target: receptor type protein tyrosine phosphatase D (PTPRD); set-up: method as in PMID 34863978; details: likely irreversible; read-out: potency in inhibiting PTPRD's phosphatase; cited from earlier work
[12] = test system: receptor type protein tyrosine phosphatase S (PTPRS); set-up: method as in PMID 35636503; details: cited from earlier work
[13] = test system: receptor type protein tyrosine phosphatase F (PTPRF); set-up: method as in PMID 35636503; details: cited from earlier work
[14] = test system: receptor type protein tyrosine phosphatase J (PTPRJ); set-up: method as in PMID 35636503; details: cited from earlier work
[15] = test system: nonreceptor type protein tyrosine phosphatase 1 (PTPN1/ PTP1B); set-up: method as in PMID 35636503; details: cited from earlier work
[16] = test system: targets of the NIDA-EUROFINS assays (virtually all targets of currently marketed drugs); set-up: method as in PMID 34863978; details: cited from earlier work
[17] = Repeated two week daily oral administration toxicity (observational battery, weight, chemistry, hematology, histopathology); details: rat
[18] = 20 mg/kg sc prior to every other session, 20 mg/kg

CCCCOc1cc2c(c(C=O)c1OC)CC(O)OC2=O (stereo not drawn) [7-BIA]
stimulant reward, cocaine conditioned place preference (mice [1]): reduces stimulant reward
stimulant reward, cocaine self-administration (mice [2]): reduces stimulant reward
toxicity on weeks-long repeated treatments (mice [3]): little evidence for toxicity

COc1c(OCC2CCCC2)cc2c(c1C=O)CC(O)OC2=O (stereo not drawn) [Pentilludin]
activity in Ames test (Ames test): no in vitro activities
activity in micronucleus test (micronucleus test): no in vitro activities
activity at hERG channels (hERG channels): no in vitro activities
solubility ([4]; 6.82% Captisol in 60:40 PEG600/water (dosing vehicle), 6.82% Captisol in 60:40 PEG600/water, gentle heating): ≤ 100 mg/mL
solubility ([4]; PEG600 (dosing vehicle), PEG600, gentle heating): ≤ 100 mg/mL
bioavailability ([5]; plasma, po, 20 mg/kg, data from 0.5 to 4h, read-out: bioavailability for po pentilludin in PEG600): 15%
concentration at 0.08 h ([5]; plasma, IV 20.0 mg/kg, 0.08 h): 62.2 µg/mL
concentration at 0.5 h ([5]; plasma, IV 20.0 mg/kg, 0.50 h): 2.92 µg/mL
concentration at 4 h ([5]; plasma, IV 20.0 mg/kg, 4.0 h): 0.00498 µg/mL
concentration at 0.5 h ([5]; plasma, PO 20.0 mg/kg in PEG600, 0.50 h): 0.449 µg/mL
concentration at 2 h ([5]; plasma, PO 20.0 mg/kg in PEG600, 2.0 h): 0.146 µg/mL
concentration at 4 h ([5]; plasma, PO 20.0 mg/kg in PEG600, 4.0 h): 0.0171 µg/mL
terminal half-life of plasma pentilludin ([5]; 20 mg/kg): between one and two
signs of gross toxicity ([5]; acute 20 mg/kg): no signs of gross toxicity
reduction of amphetamine self-administration overall relative to controls ([6]; 20 mg/kg sc prior to every other session, 12 sessions): 6.2 infusions per session
effect on amphetamine self-administration [6, 18]: substantially reduces; also recorded: robustly reduced
decrease of amphetamine self-administration from last acquisition sessions ([6]; 20 mg/kg sc, last two of 12 sessions): 23%
effect on remifentanil self-administration [7, 18]: more modestly reduces; also recorded: significantly attenuated the increase
smaller increase in remifentanil self-administration relative to vehicle-treated controls ([7]; 20 mg/kg sc, 11th and 12th sessions): 26.5%
responding on the control lever ([7]; remifentanil self-administration): did not differ
food pellets per one-hour session (rats): 85.6 ± 6.3 food pellets
kidney pathology (dogs): fail to display any kidney pathology
metabolism [8]: only modest metabolism
metabolism [9]: only modest metabolism
metabolism (Metabolism in rat plasma): robust metabolism
metabolism [10]: robust metabolism
interaction with recombinant paraoxonase (recombinant paraoxonase): interacts avidly
pIC50 [11]: 6.16
potency at PTPRS [12]: some potency
potency at PTPRF [13]: some potency
potency at PTPRJ [14]: less potency
potency at PTPN1/ PTP1B [15]: less potency
pIC50 [16]: ≤ 4.00
activity at targets for currently-licensed drugs ([16]; in vitro): no in vitro activities
oral intake and weight (mice [3]; daily ≥ 150 mg/kg po): reduce oral intake and lose weight starting on about the 4th day
toxicity on weeks-long repeated treatments (mice [3]; pentilludin doses up to 100 mg/kg/d po): little evidence for toxicity
weight loss (mice [3]; repeated doses of 100 mg/kg/day): no weight loss
serum chemistry abnormalities in measures relating to renal function ([17]; 150 mg/kg/d): no serum chemistry abnormalities
proteinuria ([17]; 150 mg/kg/d po two weeks, 150 mg/kg/day): proteinuria in rats treated with 150 mg/kg/d that recovered within two weeks of the end of pentilludin administration; also recorded: modest and reversible proteinuria
effects on the observational battery, weight, plasma chemistries or hematological assessments ([17]; 50 or 75 mg/kg po daily in PEG600, two weeks): no significant effects
kidney histopathology ([17]; daily doses for two weeks, also found with vehicle): basophilic lesions in the kidneys of a number of the rats
alterations in serum chemistries related to renal function ([17]; doses up to 100 mg/kg/d): None of the rats treated with doses up to 100 mg/kg/d displayed alterations
behavioral, hematologic or serum chemistry abnormalities ([17]; doses up to 100 mg/kg/day for two weeks): have not been found to display behavioral, hematologic or serum chemistry abnormalities
effects on histopathology ([17]; good laboratory practices toxicology study, 50 or 75 mg/kg/d po two weeks): no pentilludin-associated effects detected
effect on plasma chemistry, hematology and behavioral observation batteries ([17]; good laboratory practices work): lack of effect
